# According to patent US20250115569A1, “SULFONAMIDE COMPOUNDS FOR THE TREATMENT OF NEUROLOGICAL CONDITIONS” (LARIO THERAPEUTICS LIMITED, priority 2021, published 2025):
# Target: Cav2.3 (Homo sapiens, UniProt Q15878)
# Test: Human Cav2.3 channel calcium-influx assay
# Assay type: cell-based
# Settings: Fluo8 fluorescence, HEK-293 T-Rex/Kir2.1/Cav2.3e cells, without pluronic acid, read-out: Cav2.3 (pIC50) (converted)
# Procedure, shortened: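 HEK-293 T-Rex/Kir2.1 cells with doxycycline (0.2 μg/mL)-inducible Cav2.3e plus Cavβ4-α2δ1, loaded with Fluo8 NW in 0 mM K+ Tyrode's. Compounds (8 points, top 30 μM, half-log, 0.3% final DMSO, n=4) preincubated 3 min at RT, then depolarized with 20 mM KCl/2 mM CaCl2 (final); fluorescence read 130 s.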
# Cav2.3, sequence (Q15878 whole entry, looked up): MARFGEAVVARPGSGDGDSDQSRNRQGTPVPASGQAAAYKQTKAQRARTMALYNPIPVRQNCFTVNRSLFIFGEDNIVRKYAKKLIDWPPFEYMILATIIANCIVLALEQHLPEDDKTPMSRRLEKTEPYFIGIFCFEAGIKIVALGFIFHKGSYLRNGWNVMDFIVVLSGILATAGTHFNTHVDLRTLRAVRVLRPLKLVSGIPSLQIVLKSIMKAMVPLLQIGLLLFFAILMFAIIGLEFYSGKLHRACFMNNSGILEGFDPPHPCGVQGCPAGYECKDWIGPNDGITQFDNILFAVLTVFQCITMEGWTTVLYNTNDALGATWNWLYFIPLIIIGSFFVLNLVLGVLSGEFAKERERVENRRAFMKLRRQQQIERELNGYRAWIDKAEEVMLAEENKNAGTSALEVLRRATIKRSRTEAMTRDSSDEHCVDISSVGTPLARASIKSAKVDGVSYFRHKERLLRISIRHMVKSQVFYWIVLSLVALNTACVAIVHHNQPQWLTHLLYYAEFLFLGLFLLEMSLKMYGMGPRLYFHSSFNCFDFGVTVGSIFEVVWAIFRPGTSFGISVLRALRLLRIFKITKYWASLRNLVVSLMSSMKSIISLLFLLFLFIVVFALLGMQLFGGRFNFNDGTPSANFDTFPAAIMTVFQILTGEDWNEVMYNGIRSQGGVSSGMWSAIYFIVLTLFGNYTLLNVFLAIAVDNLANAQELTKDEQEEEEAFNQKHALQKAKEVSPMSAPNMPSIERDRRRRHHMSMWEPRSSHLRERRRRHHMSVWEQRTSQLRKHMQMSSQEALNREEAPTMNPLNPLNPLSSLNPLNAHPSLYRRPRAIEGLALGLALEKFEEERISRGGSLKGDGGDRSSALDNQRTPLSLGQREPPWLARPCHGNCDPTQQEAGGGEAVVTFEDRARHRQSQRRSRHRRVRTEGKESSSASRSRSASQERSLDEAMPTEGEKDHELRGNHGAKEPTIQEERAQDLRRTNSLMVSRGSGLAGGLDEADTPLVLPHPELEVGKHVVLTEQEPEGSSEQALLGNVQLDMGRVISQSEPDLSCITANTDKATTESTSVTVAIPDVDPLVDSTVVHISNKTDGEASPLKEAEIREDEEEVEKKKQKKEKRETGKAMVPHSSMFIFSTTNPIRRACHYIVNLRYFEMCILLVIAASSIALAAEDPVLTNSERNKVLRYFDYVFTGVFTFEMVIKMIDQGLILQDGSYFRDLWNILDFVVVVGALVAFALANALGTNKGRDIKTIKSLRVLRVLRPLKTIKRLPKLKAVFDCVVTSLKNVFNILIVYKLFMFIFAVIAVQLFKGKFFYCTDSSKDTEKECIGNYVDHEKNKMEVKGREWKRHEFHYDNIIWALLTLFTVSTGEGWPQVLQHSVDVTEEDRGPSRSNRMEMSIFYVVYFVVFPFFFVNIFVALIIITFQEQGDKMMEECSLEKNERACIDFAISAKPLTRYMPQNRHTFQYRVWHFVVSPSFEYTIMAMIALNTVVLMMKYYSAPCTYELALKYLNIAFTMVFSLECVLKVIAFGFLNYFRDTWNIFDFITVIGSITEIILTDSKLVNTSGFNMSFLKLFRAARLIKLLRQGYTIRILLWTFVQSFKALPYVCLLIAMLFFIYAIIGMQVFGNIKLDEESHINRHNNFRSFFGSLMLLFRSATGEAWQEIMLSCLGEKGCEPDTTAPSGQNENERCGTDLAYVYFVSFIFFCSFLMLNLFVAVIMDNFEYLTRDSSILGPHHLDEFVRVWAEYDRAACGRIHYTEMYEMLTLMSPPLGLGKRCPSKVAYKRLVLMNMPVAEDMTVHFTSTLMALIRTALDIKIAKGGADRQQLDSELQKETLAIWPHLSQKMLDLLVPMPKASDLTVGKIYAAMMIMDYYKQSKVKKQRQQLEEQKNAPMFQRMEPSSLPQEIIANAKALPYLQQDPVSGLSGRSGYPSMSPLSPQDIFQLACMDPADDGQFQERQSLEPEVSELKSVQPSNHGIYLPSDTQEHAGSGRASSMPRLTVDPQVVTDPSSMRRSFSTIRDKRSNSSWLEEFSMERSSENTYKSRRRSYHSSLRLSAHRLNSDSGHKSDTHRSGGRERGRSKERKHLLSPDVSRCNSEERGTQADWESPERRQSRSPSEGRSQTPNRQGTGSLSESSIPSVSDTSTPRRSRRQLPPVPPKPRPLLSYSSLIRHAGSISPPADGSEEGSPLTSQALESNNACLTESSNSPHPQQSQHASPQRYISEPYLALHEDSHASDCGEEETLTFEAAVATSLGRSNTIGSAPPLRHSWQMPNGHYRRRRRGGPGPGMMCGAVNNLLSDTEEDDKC
smiles,measurement,value
"CN([C@H](c1ccc(Cl)cc1)C(F)(F)F)S(=O)(=O)c1cnc2ccccn12 [Example 187, (R)—N-(1-(4-chlorophenyl)-2,2,2-trifluoroethyl)-N-methylimidazo[1,2-a]pyridine-3-sulfonamide]",IC50,19.1 nM
"CCN([C@H](c1ccc(F)cc1)C(F)(F)F)S(=O)(=O)c1ccn2nnnc2c1 [Example 158, (R)—N-ethyl-N-(2,2,2-trifluoro-1-(4-fluorophenyl)ethyl)tetrazolo[1,5-a]pyridine-7-sulfonamide]",IC50,275 nM
"CCN([C@H](c1ccc(OC)cc1)C(F)(F)F)S(=O)(=O)c1cncc(F)c1 [Example 257, (R)—N-ethyl-5-fluoro-N-(2,2,2-trifluoro-1-(4-methoxyphenyl)ethyl)pyridine-3-sulfonamide]",IC50,22.9 nM
"CN([C@H](c1ccc(OC(F)F)cc1)C(F)(F)F)S(=O)(=O)c1cncc(C#N)c1 [Example 240, (R)-5-cyano-N-(1-(4-(difluoromethoxy)phenyl)-2,2,2-trifluoroethyl)-N-methylpyridine-3-sulfonamide]",IC50,162 nM
"Cc1ccc([C@@H](N(C)S(=O)(=O)c2cncc(C#N)c2)C(F)(F)F)cc1 [Example 225, (R)-5-cyano-N-methyl-N-(2,2,2-trifluoro-1-(p-tolyl)ethyl)pyridine-3-sulfonamide]",IC50,105 nM
"CCN([C@H](c1ccc(F)cc1)C(F)(F)F)S(=O)(=O)c1cn2ccccc2n1 [Example 142, (R)—N-ethyl-N-(2,2,2-trifluoro-1-(4-fluorophenyl)ethyl)imidazo[1,2-a]pyridine-2-sulfonamide]",IC50,1070 nM
"CCN([C@H](c1ccc(F)cc1)C(F)(F)F)S(=O)(=O)c1ccc2ncn(C)c2c1 [Example 164, (R)—N-ethyl-1-methyl-N-(2,2,2-trifluoro-1-(4-fluorophenyl)ethyl)-1H-benzo[d]imidazole-6-sulfonamide]",IC50,174 nM
"COc1ccc([C@@H](N(C)S(=O)(=O)c2cn3ccncc3n2)C(F)(F)F)cc1 [Example 196, (R)—N-methyl-N-(2,2,2-trifluoro-1-(4-methoxyphenyl)ethyl)imidazo[1,2-a]pyrazine-2-sulfonamide]",IC50,9330 nM
"CCN([C@H](c1ccc(F)cc1)C(F)(F)F)S(=O)(=O)c1cncc(F)c1 [Example 261, (R)—N-ethyl-5-fluoro-N-(2,2,2-trifluoro-1-(4-fluorophenyl)ethyl)pyridine-3-sulfonamide]",IC50,11.7 nM
"CCN(C(c1ccc(F)cc1)C(F)(F)F)S(=O)(=O)c1cnnc(OC)c1 (stereo not drawn) [Example 121, N-ethyl-6-methoxy-N-(2,2,2-trifluoro-1-(4-fluorophenyl)ethyl)pyridazine-4-sulfonamide]",IC50,191 nM
"CCN(C(c1ccc(F)cc1)C(F)(F)F)S(=O)(=O)c1ccc(C(N)=O)s1 (stereo not drawn) [Example 22, 5-(N-ethyl-N-(2,2,2-trifluoro-1-(4-fluorophenyl)ethyl)sulfamoyl)thiophene-2-carboxamide]",IC50,741 nM
"CCN([C@H](c1ccc(F)cc1)C(F)(F)F)S(=O)(=O)c1ccc2[nH]nnc2c1 [Example 189, (R)—N-ethyl-N-(2,2,2-trifluoro-1-(4-fluorophenyl)ethyl)-1H-benzo[d][1,2,3]triazole-5-sulfonamide]",IC50,166 nM
"CCN([C@H](c1ccc(OC(F)(F)F)cc1)C(F)(F)F)S(=O)(=O)c1cncc(C#N)c1 [Example 119, (R)-5-Cyano-N-ethyl-N-(2,2,2-trifluoro-1-(4-(trifluoromethoxy)phenyl)ethyl)pyridine-3-sulfonamide]",IC50,87.1 nM
"CN([C@H](c1ccc(F)cc1)C(F)(F)F)S(=O)(=O)c1ccc2nnc(C(F)(F)F)n2n1 [Example 170, (R)—N-methyl-N-(2,2,2-trifluoro-1-(4-fluorophenyl)ethyl)-3-(trifluoromethyl)-[1,2,4]triazolo[4,3-b]pyridazine-6-sulfonamide]",IC50,13200 nM
"CN([C@@H](c1ccc(F)cc1)C(F)(F)F)S(=O)(=O)c1ccc(F)s1 (stereo in doubt) [Example 18, 5-fluoro-N-methyl-N-(2,2,2-trifluoro-1-(4-fluorophenyl)ethyl)thiophene-2-sulfonamide]",IC50,11700 nM
"CN([C@H](c1ccc(F)cc1)C(F)(F)F)S(=O)(=O)c1cncc(F)c1 [Example 223, (R)-5-fluoro-N-methyl-N-(2,2,2-trifluoro-1-(4-fluorophenyl)ethyl)pyridine-3-sulfonamide]",IC50,145 nM
"CCN([C@H](c1ccc(F)cc1)C(F)(F)F)S(=O)(=O)c1cnccn1 [Example 265, (R)—N-ethyl-N-(2,2,2-trifluoro-1-(4-fluorophenyl)ethyl)pyrazine-2-sulfonamide]",IC50,39.8 nM
"CCN([C@H](c1ccc(F)cc1)C(F)(F)F)S(=O)(=O)c1ccc2nc[nH]c2c1 [Example 185, (R)—N-ethyl-N-(2,2,2-trifluoro-1-(4-fluorophenyl)ethyl)-1H-benzo[d]imidazole-6-sulfonamide]",IC50,155 nM
"Cc1cc([C@@H](N(C)S(=O)(=O)c2cncc(C#N)c2)C(F)(F)F)ccc1C(F)(F)F [Example 269, (R)-5-cyano-N-methyl-N-(2,2,2-trifluoro-1-(3-methyl-4-(trifluoromethyl)phenyl)ethyl)pyridine-3-sulfonamide]",IC50,302 nM
"CCN(C(c1ccc(F)cc1)C(F)(F)F)S(=O)(=O)c1csc(C#N)n1 (stereo not drawn) [Example 50, 2-cyano-N-ethyl-N-(2,2,2-trifluoro-1-(4-fluorophenyl)ethyl)thiazole-4-sulfonamide]",IC50,240 nM
"CCN([C@H](c1ccc(F)cc1)C(F)(F)F)S(=O)(=O)c1ccn2nncc2c1 [Example 145, (R)—N-ethyl-N-(2,2,2-trifluoro-1-(4-fluorophenyl)ethyl)-[1,2,3]triazolo[1,5-a]pyridine-5-sulfonamide]",IC50,25.1 nM
"CCN([C@@H](c1ccc(F)cc1)C(F)(F)F)S(=O)(=O)c1cnc(C#N)s1 [Example 83, (S)-2-Cyano-N-ethyl-N-(2,2,2-trifluoro-1-(4-fluorophenyl)ethyl)thiazole-5-sulfonamide]",IC50,3800 nM
"CCN([C@H](c1ccc(F)cc1)C(F)(F)F)S(=O)(=O)c1ccc2sc(N)nc2c1 [Example 155, (R)-2-amino-N-ethyl-N-(2,2,2-trifluoro-1-(4-fluorophenyl)ethyl)benzo[d]thiazole-5-sulfonamide]",IC50,1910 nM
"CN([C@H](c1ccc(Cl)cc1)C(F)(F)F)S(=O)(=O)c1cc2nncn2cn1 [Example 204, (R)—N-(1-(4-chlorophenyl)-2,2,2-trifluoroethyl)-N-methyl-[1,2,4]triazolo[4,3-c]pyrimidine-7-sulfonamide]",IC50,759 nM
"Cc1ccc([C@@H](N(C)S(=O)(=O)c2cn3ccncc3n2)C(F)(F)F)cc1 [Example 197, (R)—N-methyl-N-(2,2,2-trifluoro-1-(p-tolyl)ethyl)imidazo[1,2-a]pyrazine-2-sulfonamide]",IC50,6170 nM
"CCN([C@@H](c1ccc(F)cc1)C(F)(F)F)S(=O)(=O)c1cncc(F)c1 [Example 260, (S)—N-ethyl-5-fluoro-N-(2,2,2-trifluoro-1-(4-fluorophenyl)ethyl)pyridine-3-sulfonamide]",IC50,3550 nM
"CCN([C@H](c1ccc(F)cc1)C(F)(F)F)S(=O)(=O)c1cc2cc[nH]c2cn1 [Example 181, (R)—N-ethyl-N-(2,2,2-trifluoro-1-(4-fluorophenyl)ethyl)-1H-pyrrolo[2,3-c]pyridine-5-sulfonamide]",IC50,537 nM
"CCN([C@H](c1ccc(F)cc1)C(F)(F)F)S(=O)(=O)c1ccc2nc(C)c(Cl)n2n1 [Example 157, (R)-3-chloro-N-ethyl-2-methyl-N-(2,2,2-trifluoro-1-(4-fluorophenyl)ethyl)imidazo[1,2-b]pyridazine-6-sulfonamide]",IC50,3020 nM
"CCN([C@H](c1ccc(F)cc1)C(F)(F)F)S(=O)(=O)c1cnc2ncsc2c1 [Example 151, (R)—N-ethyl-N-(2,2,2-trifluoro-1-(4-fluorophenyl)ethyl)thiazolo[4,5-b]pyridine-6-sulfonamide]",IC50,170 nM
"CCN(C(c1ccc(F)cc1)C(F)(F)F)S(=O)(=O)c1cncc(C(N)=O)c1 (stereo not drawn) [Example 51, 5-(N-ethyl-N-(2,2,2-trifluoro-1-(4-fluorophenyl)ethyl)sulfamoyl)nicotinamide]",IC50,372 nM
"CN([C@@H](c1ccc(C(F)(F)F)cc1)C(F)(F)F)S(=O)(=O)c1cncc(C#N)c1 [Example 69, (S)-5-Cyano-N-methyl-N-(2,2,2-trifluoro-1-(4-(trifluoromethyl)phenyl)ethyl)pyridine-3-sulfonamide]",IC50,5620 nM
"CN([C@@H](c1ccc(F)cc1)C(F)(F)F)S(=O)(=O)c1cncc(C#N)c1 [Example 273, (S)-5-Cyano-N-methyl-N-(2,2,2-trifluoro-1-(4-fluorophenyl)ethyl)pyridine-3-sulfonamide]",IC50,1480 nM
"CCN([C@H](c1ccc(C(F)(F)F)cc1)C(F)(F)F)S(=O)(=O)c1cnc2ccccn12 [Example 237, (R)—N-ethyl-N-(2,2,2-trifluoro-1-(4-(trifluoromethyl)phenyl)ethyl)imidazo[1,2-a]pyridine-3-sulfonamide]",IC50,30.2 nM
"CCN([C@H](c1ccc(F)cc1)C(F)(F)F)S(=O)(=O)c1ccc2[nH]ncc2n1 [Example 188, (R)—N-ethyl-N-(2,2,2-trifluoro-1-(4-fluorophenyl)ethyl)-1H-pyrazolo[4,3-b]pyridine-5-sulfonamide]",IC50,309 nM
"COc1ccc([C@@H](N(C)S(=O)(=O)c2ccc3nccn3c2)C(F)(F)F)cc1 [Example 203, (R)—N-methyl-N-(2,2,2-trifluoro-1-(4-methoxyphenyl)ethyl)imidazo[1,2-a]pyridine-6-sulfonamide]",IC50,794 nM
"CCN(C(c1ccc(F)cc1)C(F)(F)F)S(=O)(=O)c1ccc(C(=O)N(C)C)s1 (stereo not drawn) [Example 25, 5-(N-ethyl-N-(2,2,2-trifluoro-1-(4-fluorophenyl)ethyl)sulfamoyl)-N,N-dimethylthiophene-2-carboxamide]",IC50,282 nM
